The text below walks through data of patent publication US11655216B2 (priority 2016, dated 2023).

Like-named read-outs stand apart in the source and are kept apart here.

For experiment [1], the target named is T1, glutathione-S-transferase (GST) tagged LXRalpha LBD (ligand binding domain) (Homo sapiens, UniProt Q13133).
T1 construct: purchased Invitrogen pv4655
T1 sequence (Q13133 209-447 limits assumed): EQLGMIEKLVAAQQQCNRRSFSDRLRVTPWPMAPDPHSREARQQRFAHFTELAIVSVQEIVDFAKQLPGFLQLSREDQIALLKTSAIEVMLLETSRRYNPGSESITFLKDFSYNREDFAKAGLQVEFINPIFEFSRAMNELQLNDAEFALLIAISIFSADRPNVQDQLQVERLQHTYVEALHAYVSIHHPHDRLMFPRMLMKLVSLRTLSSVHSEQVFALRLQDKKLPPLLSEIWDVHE
The experiment is described as follows: biochemical. The method in brief: (§1)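 Compound + LBD (alpha or beta); add fluorescein coactivator peptide/Tb anti-GST Ab mix; incubate RT; read TR-FRET.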

Experiment [2] concerns the target T2, glutathione-S-transferase (GST) tagged LXRbeta LBD (ligand binding domain) (Homo sapiens, UniProt P55055).
T2 construct: purchased Invitrogen pv4658
T2 sequence (P55055 222-460 limits assumed): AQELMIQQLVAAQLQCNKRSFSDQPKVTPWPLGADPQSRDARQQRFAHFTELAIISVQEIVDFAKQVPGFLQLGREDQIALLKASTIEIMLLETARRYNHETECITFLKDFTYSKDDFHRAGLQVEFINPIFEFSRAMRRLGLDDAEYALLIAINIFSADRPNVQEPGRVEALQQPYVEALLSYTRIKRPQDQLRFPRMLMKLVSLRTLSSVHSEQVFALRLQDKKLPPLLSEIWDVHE
Nature of the experiment: LanthaScreen TR-FRET Liver X Receptor Coactivator Assay, LXR beta. The class given is biochemical. The conditions noted are these: for EC50: LXR beta IP, potency (Inflection Point), compound-induced co-activator recruitment, TR-FRET; for Emax: read-out: LXR beta actiivty at max dose, efficacy (% Emax) in relation to reference dual agonist T0901317. The method in brief: as §1

[3] abbreviates: efficacy (% Emax) in relation to reference dual agonist T0901317.
[4] abbreviates: potency (Inflection Point), compound-induced co-activator recruitment, TR-FRET.
Setting [5] is: LXR alpha IP, potency (Inflection Point), compound-induced co-activator recruitment, TR-FRET.
Setting [6] is: read-out: LXR alpha actiivty at max dose, efficacy (% Emax) in relation to reference dual agonist T0901317.
The mark [7] stands for this setting: efficacy (% Emax) in relation to reference dual agonist T0901317, read-out: LXR alpha actiivty at max dose.

Turning to `CC(C)C(O)(C(=O)N1CCC(C2CC2COc2ccc(C(=O)N(C)C)c(Cl)c2)CC1)C(F)(F)F` (single isomer, unassigned) [Example 32-2, 2-chloro-4-(((1R,2S or 1S,2R)-2-(1-((R or S)-2-hydroxy-3-methyl-2-(trifluoromethyl)butanoyl)piperidin-4-yl)cyclopropyl)methoxy)-N,N-dimethylbenzamide], in experiment [1] (setting [3]), the “LXR alpha actiivty at max dose” value was found to be 8%. Besides, the “LXR alpha IP” value in experiment [1] (setting [4]) is listed as “No IP”. The compound further returned an EC50 in experiment [2] of 206 nM. Further, the “LXR beta actiivty at max dose” value in experiment [2] (setting [3]) worked out at 73%.

With `CN(C)C(=O)c1ccc(OC[C@@H]2C[C@H]2C2CCN(C(=O)[C@](O)(c3ccccc3)C(F)(F)C(F)(F)F)CC2)cc1Cl` (single isomer, unassigned) [Example 32-3, 2-chloro-N,N-dimethyl-4-(((1R,2S or 1S,2R)-2-(1-((R or S)-3,3,4,4,4-pentafluoro-2-hydroxy-2-phenylbutanoyl)piperidin-4-yl)cyclopropyl)methoxy) benzamide], the results for the EC50 in experiment [1] (setting [5]) and in experiment [2] were 1380 nM and 105 nM, respectively. Moreover, the results for the Emax in experiment [1] (setting [6]) and in experiment [2] were 17% and 125%, respectively.

As for `CN(C)C(=O)c1ccc(OC[C@@H]2C[C@H]2C2CCN(C(=O)C(C)(C)c3ccccc3)CC2)cc1Cl` (single isomer, unassigned) [Example 32-4, 2-chloro-N,N-dimethyl-4-(((1R,2S or 1S,2R)-2-(1-(2-methyl-2-phenylpropanoyl)piperidin-4-yl)cyclopropyl)methoxy) benzamide], in experiment [1] (setting [4]), the “LXR alpha IP” value is reported as “No IP”. Further, the Emax in experiment [1] (setting [6]) was determined as 0%. Also, in experiment [2], the EC50 came out at 163 nM and the Emax worked out at 60%.

With `CNC(=O)c1ccc(OC[C@H]2C[C@@H]2C2CCN(C(=O)[C@](O)(c3ccccc3)C(F)(F)C(F)(F)F)CC2)cc1Cl` (single isomer, unassigned) [Example 32-5, 2-chloro-N-methyl-4-(((1S,2R or 1R,2S)-2-(1-((R or S)-3,3,4,4,4-pentafluoro-2-hydroxy-2-phenylbutanoyl)piperidin-4-yl)cyclopropyl)methoxy) benzamide], the EC50 is 1540 nM in experiment [1] (setting [5]) and 136 nM in experiment [2]. In addition, the Emax in experiment [1] (setting [6]) turned out to be 33%; in experiment [2], 149%.

`CN(C)C(=O)c1ccc(OC[C@H]2C[C@@H]2C2CCN(C(=O)C(C)(C)c3ccccc3)CC2)cc1Cl` (single isomer, unassigned) [Example 32-6, 2-chloro-N,N-dimethyl-4-(((1S,2R or 1R,2S)-2-(1-(2-methyl-2-phenylpropanoyl)piperidin-4-yl)cyclopropyl)methoxy) benzamide]: the EC50 was found to be 631 nM in experiment [1] (setting [5]) and 42 nM in experiment [2]. For the same compound, the values for the Emax in experiment [1] (setting [6]) and in experiment [2] were 33% and 75%, respectively.

`CN(C)C(=O)c1ccc(OCC2CC3(CCN(C(=O)C(O)(c4ccccc4)C(F)(F)F)CC3)C2)cc1Cl` (single isomer, unassigned) [Example 33-1, 2-chloro-N,N-dimethyl-4-((7-((R or S)-3,3,3-trifluoro-2-hydroxy-2-phenylpropanoyl)-7-azaspiro[3.5]nonan-2-yl)methoxy)benzamide]: the values for the EC50 in experiment [1] (setting [5]) and in experiment [2] were 329 nM and 9 nM, respectively. Further, the Emax amounted to 42% in experiment [1] (setting [6]) and 69% in experiment [2].

As to `CN(C)C(=O)c1ccc(OCCC2CC3(CCN(C(=O)C(O)(c4ccccc4)C(F)(F)F)CC3)C2)cc1Cl` (single isomer, unassigned) [Example 34-1, 2-chloro-N,N-dimethyl-4-(2-(7-((R or S)-3,3,3-trifluoro-2-hydroxy-2-phenylpropanoyl)-7-azaspiro[3.5]nonan-2-yl)ethoxy)benzamide], the results for the EC50 in experiment [1] (setting [5]) and in experiment [2] were 551 nM and 16 nM, respectively. The Emax came to 46% in experiment [1] (setting [6]) and 113% in experiment [2].

As for `CN(C)C(=O)c1ccc(OCCCC2CC3(CCN(C(=O)C(O)(c4ccccc4)C(F)(F)F)CC3)C2)cc1Cl` (single isomer, unassigned) [Example 35-1, 2-chloro-N,N-dimethyl-4-(3-(7-((R or S)-3,3,3-trifluoro-2-hydroxy-2-phenylpropanoyl)-7-azaspiro[3.5]nonan-2-yl)propoxy)benzamide], the values for the Emax in experiment [1] (setting [7]) and in experiment [2] were 27% and 61%, respectively. Also, the EC50 in experiment [1] (potency (Inflection Point), compound-induced co-activator recruitment, TR-FRET, read-out: LXR alpha IP) was 546 nM; in experiment [2], 69 nM.

Turning to `COc1cccc(C(O)(C(=O)N2CCC3(CCC3CCCOc3ccc(C(=O)N(C)C)c(Cl)c3)CC2)C(F)(F)F)c1` (single isomer, unassigned) [Example 36-1, 2-chloro-N,N-dimethyl-4-(3-(7-((R or S)-3,3,3-trifluoro-2-hydroxy-2-(3-methoxyphenyl)propanoyl)-7-azaspiro[3.5]nonan-1-yl)propoxy)benzamide], the Emax in experiment [1] (setting [7]) is 3%; in experiment [2], 52%. For the same compound, in experiment [1] (setting [4]), the “LXR alpha IP” value is on record as “No IP”. The compound further had an EC50 in experiment [2] of 66 nM.

On to `CN(C)C(=O)c1ccc(O[C@H]2C[C@@H](CC3CCN(C(=O)[C@](O)(c4ccccc4)C(F)(F)F)CC3)C2)cc1Cl` (single isomer, unassigned) [Example 37-1, 2-chloro-N,N-dimethyl-4-((1R,3s)-3-((1-((R or S)-3,3,3-trifluoro-2-hydroxy-2-phenylpropanoyl)piperidin-4-yl)methyl)cyclobutoxy)benzamide], for which the EC50 in experiment [1] (LXR alpha IP) is 381 nM; in experiment [2], 10 nM. Moreover, the Emax in experiment [1] (read-out: LXR alpha actiivty at max dose) turned out to be 42%; in experiment [2], 131%.

For `CN(C)C(=O)c1ccc(O[C@H]2C[C@@H](CC3CCN(C(=O)[C@](O)(c4cccc(OC5CC5)c4)C(F)(F)F)CC3)C2)cc1Cl` (single isomer, unassigned) [Example 37-2, 2-chloro-4-((1R,3s)-3-((1-((R or S)-2-(3-cyclopropoxyphenyl)-3,3,3-trifluoro-2-hydroxypropanoyl)piperidin-4-yl)methyl)cyclobutoxy)-N,N-dimethylbenzamide], the “LXR alpha IP” value in experiment [1] (setting [4]) is “No IP”. In addition, the Emax came out at 2% in experiment [1] (setting [6]) and 109% in experiment [2]. The EC50 in experiment [2] was determined as 40 nM.

For `CCOc1cccc([C@@](O)(C(=O)N2CCC(C[C@H]3C[C@@H](Oc4ccc(C(=O)N(C)C)c(Cl)c4)C3)CC2)C(F)(F)F)c1` (single isomer, unassigned) [Example 37-3, 2-chloro-4-((1R,3s)-3-((1-((R or S)-2-(3-ethoxyphenyl)-3,3,3-trifluoro-2-hydroxypropanoyl)piperidin-4-yl)methyl)cyclobutoxy)-N,N-dimethylbenzamide], in experiment [1] (setting [4]), the “LXR alpha IP” value is reported as “No IP”. In addition, the Emax in experiment [1] (setting [6]) was determined as 9%. In experiment [2], the EC50 amounted to 17 nM and the Emax came to 124%.

Regarding `CCc1cccc([C@@](O)(C(=O)N2CCC(C[C@H]3C[C@@H](Oc4ccc(C(=O)N(C)C)c(Cl)c4)C3)CC2)C(F)(F)F)c1` (single isomer, unassigned) [Example 37-4, 2-chloro-4-((1R,3s)-3-((1-((R or S)-2-(3-ethylphenyl)-3,3,3-trifluoro-2-hydroxypropanoyl)piperidin-4-yl)methyl)cyclobutoxy)-N,N-dimethylbenzamide], the “LXR alpha IP” value in experiment [1] (setting [4]) is listed as “No IP”. For the same compound, the Emax in experiment [1] (setting [6]) worked out at 13%. Moreover, in experiment [2], the EC50 came to 16 nM and the Emax amounted to 120%.

Consider `CN(C)C(=O)c1ccc(O[C@H]2C[C@@H](CC3CCN(C(=O)[C@](O)(c4cccc(C5CC5)c4)C(F)(F)F)CC3)C2)cc1Cl` (single isomer, unassigned) [Example 37-5, 2-chloro-4-((1R,3s)-3-((1-((R or S)-2-(3-cyclopropylphenyl)-3,3,3-trifluoro-2-hydroxypropanoyl)piperidin-4-yl)methyl)cyclobutoxy)-N,N-dimethylbenzamide], for which the EC50 was found to be 401 nM in experiment [1] (setting [5]) and 6 nM in experiment [2]. In addition, the Emax in experiment [1] (setting [6]) came to 30%; in experiment [2], 134%.

With `CN(C)C(=O)c1ccc(O[C@H]2C[C@@H](CC3CCN(C(=O)[C@](O)(c4cccc(C(F)(F)F)c4)C(F)(F)F)CC3)C2)cc1Cl` (single isomer, unassigned) [Example 37-6, 2-chloro-N,N-dimethyl-4-((1R,3s)-3-((1-((R or S)-3,3,3-trifluoro-2-hydroxy-2-(3-(trifluoromethyl)phenyl)propanoyl)piperidin-4-yl)methyl)cyclobutoxy) benzamide], the results for the EC50 in experiment [1] (setting [5]) and in experiment [2] were 602 nM and 15 nM, respectively. Moreover, the figures for the Emax in experiment [1] (setting [6]) and in experiment [2] were 31% and 119%, respectively.
